{"source": "patent US20240350447A1", "about": "“DELIVERY METHODS FOR TREATING BRAIN AND CENTRAL NERVOUS SYSTEM DISEASES” (JENIVISION INC., priority 2021, published 2024)", "key": {"[1]": {"test": "DHA-EE distribution after single periorbital skin administration", "format": "in vivo, Bama minipigs", "description": "In this example, 6174 μg/eye of docohexaenoic acid ethyl ester (DHA-EE) was applied to the periorbital skin of a left eye of a Bama minipig. […] 21099.7 ng/g of tissue and 21336.3 ng/g of tissue of DHA was measured in the left and right halves of the brain, respectively. […] The average amount of DHA present in the brain 3 hours post-dosage was 21218 ng/g.\nGiven that the average Bama pig brain weighs around 60 g, the amount of DHA delivered to the brain can be estimated to be 27,600 ng or 27.6 μg. Therefore, the percentage of administered dose=27.6 μg delivered to brain/6174 μg dosed=0.45% of DHA topically administered to the pig via periorbital administration was delivered to the brain. As a comparison, only about 0.025% of DHA that is orally administered is delivered to the brain or CNS."}, "[2]": {"test": "Baseline endogenous levels of DHA, DHA-EE and JV-DE1", "format": "in vivo", "settings": "undosed Bama minipigs", "description": "Endogenous levels were measured in the plasma, cerebrospinal fluid, ocular tissues (retina, optic nerve, ocular muscles), and brain. The endogenous levels DHA are not attributable to NIODP administration of DHA, DHA-EE, or JV-DE1. The baseline data collected in Table 4 was taken from the same lot of pigs, from the same vendor, as the information collected in Tables 5-7."}, "[3]": {"settings": "0 h, DHA-EE 6174 μg to periorbital skin of left eye"}, "[4]": {"settings": "1 h, DHA-EE 6174 μg to periorbital skin of left eye"}, "[5]": {"settings": "3 h, DHA-EE 6174 μg to periorbital skin of left eye"}}}
{"compound": "CC/C=C\\C/C=C\\C/C=C\\C/C=C\\C/C=C\\C/C=C\\CCC(=O)OCC", "note": "[DHA-EE, Docosahexaenoic acid ethyl ester]", "values": [{"measurement": "Drug Concentration in Plasma, analyte DHA", "setting": "[1]; [3]", "result": "BLQ"}, {"measurement": "Drug Concentration in Plasma, analyte DHA-EE", "setting": "[1]; [3]", "result": "BLQ"}, {"measurement": "Drug Concentration in Plasma, analyte DHA", "setting": "[1]; [4]", "result": "BLQ"}, {"measurement": "Drug Concentration in Plasma, analyte DHA-EE", "setting": "[1]; [4]", "result": "BLQ"}, {"measurement": "Percentage of administered dose delivered to the brain (as DHA)", "setting": "[1]; 3 h, DHA-EE 6174 μg periorbital, whole brain estimate", "result": 0.45, "unit": "%"}, {"measurement": "Analyte DHA, % of administered dose: Cerebrospinal fluid", "setting": "[1]; [5]", "result": 0, "unit": "%"}, {"measurement": "Analyte DHA, % of administered dose: brain-left", "setting": "[1]; [5]", "result": 0.332, "unit": "%"}, {"measurement": "Analyte DHA, % of administered dose: brain-right", "setting": "[1]; [5]", "result": 0.562, "unit": "%"}, {"measurement": "Analyte DHA, % of administered dose: inferior rectus muscle-left", "setting": "[1]; [5]", "result": 0.008, "unit": "%"}, {"measurement": "Analyte DHA, % of administered dose: inferior rectus muscle-right", "setting": "[1]; [5]", "result": 0.009, "unit": "%"}, {"measurement": "Analyte DHA, % of administered dose: lateral rectus muscle-left", "setting": "[1]; [5]", "result": 0.004, "unit": "%"}, {"measurement": "Analyte DHA, % of administered dose: lateral rectus muscle-right", "setting": "[1]; [5]", "result": 0.010, "unit": "%"}, {"measurement": "Analyte DHA, % of administered dose: medial rectus muscle-left", "setting": "[1]; [5]", "result": 0.020, "unit": "%"}, {"measurement": "Analyte DHA, % of administered dose: medial rectus muscle-right", "setting": "[1]; [5]", "result": 0.016, "unit": "%"}, {"measurement": "Analyte DHA, % of administered dose: optic nerve-left", "setting": "[1]; [5]", "result": 0.011, "unit": "%"}, {"measurement": "Analyte DHA, % of administered dose: optic nerve-right", "setting": "[1]; [5]", "result": 0.031, "unit": "%"}, {"measurement": "Analyte DHA, % of administered dose: retina-left", "setting": "[1]; [5]", "result": 0.130, "unit": "%"}, {"measurement": "Analyte DHA, % of administered dose: retina-right", "setting": "[1]; [5]", "result": 0.110, "unit": "%"}, {"measurement": "Analyte DHA, % of administered dose: superior rectus muscle-left", "setting": "[1]; [5]", "result": 0.043, "unit": "%"}, {"measurement": "Analyte DHA, % of administered dose: superior rectus muscle-right", "setting": "[1]; [5]", "result": 0.005, "unit": "%"}, {"measurement": "Analyte DHA, Concentration in Tissue: Cerebrospinal fluid", "setting": "[1]; [5]", "result": 0, "unit": "ng/g"}, {"measurement": "Analyte DHA, Concentration in Tissue: brain-left", "setting": "[1]; [5]", "result": 21099.7, "unit": "ng/g"}, {"measurement": "Analyte DHA, Concentration in Tissue: brain-right", "setting": "[1]; [5]", "result": 21336.3, "unit": "ng/g"}, {"measurement": "Analyte DHA, Concentration in Tissue: inferior rectus muscle-left", "setting": "[1]; [5]", "result": 3161.1, "unit": "ng/g"}, {"measurement": "Analyte DHA, Concentration in Tissue: inferior rectus muscle-right", "setting": "[1]; [5]", "result": 1287.8, "unit": "ng/g"}, {"measurement": "Analyte DHA, Concentration in Tissue: lateral rectus muscle-left", "setting": "[1]; [5]", "result": 1356.3, "unit": "ng/g"}, {"measurement": "Analyte DHA, Concentration in Tissue: lateral rectus muscle-right", "setting": "[1]; [5]", "result": 1085.6, "unit": "ng/g"}, {"measurement": "Analyte DHA, Concentration in Tissue: medial rectus muscle-left", "setting": "[1]; [5]", "result": 4874.6, "unit": "ng/g"}, {"measurement": "Analyte DHA, Concentration in Tissue: medial rectus muscle-right", "setting": "[1]; [5]", "result": 1690.7, "unit": "ng/g"}, {"measurement": "Analyte DHA, Concentration in Tissue: optic nerve-left", "setting": "[1]; [5]", "result": 8794.6, "unit": "ng/g"}, {"measurement": "Analyte DHA, Concentration in Tissue: optic nerve-right", "setting": "[1]; [5]", "result": 8839.4, "unit": "ng/g"}, {"measurement": "Analyte DHA, Concentration in Tissue: retina-left", "setting": "[1]; [5]", "result": 48882.9, "unit": "ng/g"}, {"measurement": "Analyte DHA, Concentration in Tissue: retina-right", "setting": "[1]; [5]", "result": 41629.4, "unit": "ng/g"}, {"measurement": "Analyte DHA, Concentration in Tissue: superior rectus muscle-left", "setting": "[1]; [5]", "result": 10400.7, "unit": "ng/g"}, {"measurement": "Analyte DHA, Concentration in Tissue: superior rectus muscle-right", "setting": "[1]; [5]", "result": 743.6, "unit": "ng/g"}, {"measurement": "Analyte DHA-EE, % of administered dose: Cerebrospinal fluid", "setting": "[1]; [5]", "result": 0, "unit": "%"}, {"measurement": "Analyte DHA-EE, % of administered dose: brain-left", "setting": "[1]; [5]", "result": 0, "unit": "%"}, {"measurement": "Analyte DHA-EE, % of administered dose: brain-right", "setting": "[1]; [5]", "result": 0, "unit": "%"}, {"measurement": "Analyte DHA-EE, % of administered dose: inferior rectus muscle-left", "setting": "[1]; [5]", "result": 0.02, "unit": "%"}, {"measurement": "Analyte DHA-EE, % of administered dose: inferior rectus muscle-right", "setting": "[1]; [5]", "result": 0, "unit": "%"}, {"measurement": "Analyte DHA-EE, % of administered dose: lateral rectus muscle-left", "setting": "[1]; [5]", "result": 0.003, "unit": "%"}, {"measurement": "Analyte DHA-EE, % of administered dose: lateral rectus muscle-right", "setting": "[1]; [5]", "result": 0, "unit": "%"}, {"measurement": "Analyte DHA-EE, % of administered dose: medial rectus muscle-left", "setting": "[1]; [5]", "result": 0.02, "unit": "%"}, {"measurement": "Analyte DHA-EE, % of administered dose: medial rectus muscle-right", "setting": "[1]; [5]", "result": 0, "unit": "%"}, {"measurement": "Analyte DHA-EE, % of administered dose: optic nerve-left", "setting": "[1]; [5]", "result": 0, "unit": "%"}, {"measurement": "Analyte DHA-EE, % of administered dose: optic nerve-right", "setting": "[1]; [5]", "result": 0, "unit": "%"}, {"measurement": "Analyte DHA-EE, % of administered dose: retina-left", "setting": "[1]; [5]", "result": 0, "unit": "%"}, {"measurement": "Analyte DHA-EE, % of administered dose: retina-right", "setting": "[1]; [5]", "result": 0, "unit": "%"}, {"measurement": "Analyte DHA-EE, % of administered dose: superior rectus muscle-left", "setting": "[1]; [5]", "result": 0.04, "unit": "%"}, {"measurement": "Analyte DHA-EE, % of administered dose: superior rectus muscle-right", "setting": "[1]; [5]", "result": 0, "unit": "%"}, {"measurement": "Analyte DHA-EE, Concentration in Tissue: Cerebrospinal fluid", "setting": "[1]; [5]", "result": 0, "unit": "ng/g"}, {"measurement": "Analyte DHA-EE, Concentration in Tissue: brain-left", "setting": "[1]; [5]", "result": 0, "unit": "ng/g"}, {"measurement": "Analyte DHA-EE, Concentration in Tissue: brain-right", "setting": "[1]; [5]", "result": 0, "unit": "ng/g"}, {"measurement": "Analyte DHA-EE, Concentration in Tissue: inferior rectus muscle-left", "setting": "[1]; [5]", "result": 7444.8, "unit": "ng/g"}, {"measurement": "Analyte DHA-EE, Concentration in Tissue: inferior rectus muscle-right", "setting": "[1]; [5]", "result": 0, "unit": "ng/g"}, {"measurement": "Analyte DHA-EE, Concentration in Tissue: lateral rectus muscle-left", "setting": "[1]; [5]", "result": 995.7, "unit": "ng/g"}, {"measurement": "Analyte DHA-EE, Concentration in Tissue: lateral rectus muscle-right", "setting": "[1]; [5]", "result": 0, "unit": "ng/g"}, {"measurement": "Analyte DHA-EE, Concentration in Tissue: medial rectus muscle-left", "setting": "[1]; [5]", "result": 7382.3, "unit": "ng/g"}, {"measurement": "Analyte DHA-EE, Concentration in Tissue: medial rectus muscle-right", "setting": "[1]; [5]", "result": 0, "unit": "ng/g"}, {"measurement": "Analyte DHA-EE, Concentration in Tissue: optic nerve-left", "setting": "[1]; [5]", "result": 0, "unit": "ng/g"}, {"measurement": "Analyte DHA-EE, Concentration in Tissue: retina-left", "setting": "[1]; [5]", "result": 0, "unit": "ng/g"}, {"measurement": "Analyte DHA-EE, Concentration in Tissue: retina-right", "setting": "[1]; [5]", "result": 0, "unit": "ng/g"}, {"measurement": "Analyte DHA-EE, Concentration in Tissue: superior rectus muscle-left", "setting": "[1]; [5]", "result": 12844.5, "unit": "ng/g"}, {"measurement": "Analyte DHA-EE, Concentration in Tissue: superior rectus muscle-right", "setting": "[1]; [5]", "result": 0, "unit": "ng/g"}, {"measurement": "Average DHA present in the brain", "setting": "[1]; [5]", "result": 21218, "unit": "ng/g"}, {"measurement": "DHA-EE in ocular muscles of the dosed eye", "setting": "[1]; [5]", "result": "detectable"}, {"measurement": "DHA-EE measured in the brain", "setting": "[1]; [5]", "result": "no DHA-EE was measured in the brain"}, {"measurement": "Drug Concentration in Plasma, analyte DHA", "setting": "[1]; [5]", "result": "BLQ"}, {"measurement": "Drug Concentration in Plasma, analyte DHA-EE", "setting": "[1]; [5]", "result": "BLQ"}, {"measurement": "Baseline endogenous concentration in brain", "setting": "[2]", "result": "BLQ"}, {"measurement": "Baseline endogenous concentration in cerebrospinal fluid", "setting": "[2]", "result": "BLQ"}, {"measurement": "Baseline endogenous concentration in eye tissue homogenate including (Retina, optic nerve, ocular muscle)", "setting": "[2]", "result": "BLQ"}, {"measurement": "Baseline endogenous concentration in plasma", "setting": "[2]", "result": "BLQ"}]}
